According to PubChem BioAssay (NCI):
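Step 1: Grow cells in 96-well plates. Step 2: Expose to compound for 48 hours at 5 concentrations. Step 3: Interpolate endpoints linearly; if unreached, use highest concentration. The concentration for 50% growth inhibition is given as GI50. TGI: total growth inhibition.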

Experiments:
Assay in all cases: NCI anticancer screen, dose series, 48 h
[1] = test system: A549 NSCLC
[2] = test system: OVCAR-5 ovarian
[3] = test system: SR leukemia
[4] = test system: IGROV1 ovarian
[5] = test system: BT-549 breast
[6] = test system: K-562 leukemia
[7] = test system: U251 CNS
[8] = test system: MOLT-4 leukemia
[9] = test system: KM12 colon
[10] = test system: OVCAR-3 ovarian
[11] = test system: UACC-62 melanoma
[12] = test system: LOX IMVI melanoma
[13] = test system: UACC-257 melanoma
[14] = test system: SK-MEL-5 melanoma
[15] = test system: CAKI-1 renal
[16] = test system: ACHN renal
[17] = test system: OVCAR-8 ovarian
[18] = test system: MDA-MB-231 breast
[19] = test system: SK-OV-3 ovarian
[20] = test system: TK-10 renal
[21] = test system: NCI/ADR-RES ovarian
[22] = test system: PC-3 prostate
[23] = test system: HL-60(TB) leukemia
[24] = test system: A498 renal
[25] = test system: SF-295 CNS
[26] = test system: M14 melanoma
[27] = test system: SF-539 CNS
[28] = test system: NCI-H226 lung
[29] = test system: SW-620 colon
[30] = test system: OVCAR-4 ovarian
[31] = test system: HCC-2998 colon
[32] = test system: SNB-75 CNS
[33] = test system: DU-145 prostate
[34] = test system: MALME-3M melanoma
[35] = test system: HCT-15 colon
[36] = test system: EKVX NSCLC
[37] = test system: HOP-62 NSCLC
[38] = test system: RPMI-8226 leukemia
[39] = test system: RXF 393 renal
[40] = test system: HT29 colon
[41] = test system: UO-31 renal
[42] = test system: SK-MEL-2 melanoma
[43] = test system: CCRF-CEM leukemia
[44] = test system: T-47D breast
[45] = test system: HCT-116 colon
[46] = test system: NCI-H460 lung
[47] = test system: SNB-19 CNS
[48] = test system: NCI-H522 lung
[49] = test system: COLO 205 colon
[50] = test system: SN12C renal
[51] = test system: HS 578T breast
[52] = test system: MDA-MB-435
[53] = test system: SK-MEL-28 melanoma
[54] = test system: NCI-H23 lung
[55] = test system: SF-268 CNS
[56] = test system: 786-0 renal
[57] = test system: MCF7 breast
[58] = test system: HOP-92 NSCLC

With `N#C/C(=C\c1cc2ccc(N3CCC3)cc2oc1=O)C(=O)N(CC(=O)O)CC(=O)O` the GI50 [1] was > 100 µM, the TGI [1] was > 100 µM and the GI50 [2] was > 100 µM. For the same molecule, the TGI [2] was > 100 µM, the GI50 [3] was > 100 µM and the TGI [3] was > 100 µM. The GI50 [4] was > 100 µM, the TGI [4] was > 100 µM and the GI50 [5] was > 100 µM. The TGI [5] was > 100 µM, the GI50 [6] was 97.2 µM and the TGI [6] was > 100 µM. The GI50 [7] was > 100 µM, the TGI [7] was > 100 µM and the GI50 [8] was > 100 µM. The TGI [8] was > 100 µM, the GI50 [9] was > 100 µM and the TGI [9] was > 100 µM. For the same molecule, the GI50 [10] was > 100 µM, the TGI [10] was > 100 µM and the GI50 [11] was > 100 µM. For the same molecule, the TGI [11] was > 100 µM, the GI50 [12] was > 100 µM and the TGI [12] was > 100 µM. The GI50 [13] was > 100 µM, the TGI [13] was > 100 µM and the GI50 [14] was > 100 µM. The TGI [14] was > 100 µM, the GI50 [15] was > 100 µM and the TGI [15] was > 100 µM. For the same molecule, the GI50 [16] was > 100 µM, the TGI [16] was > 100 µM and the GI50 [17] was > 100 µM. The TGI [17] was > 100 µM, the GI50 [18] was > 100 µM and the TGI [18] was > 100 µM. The GI50 [19] was > 100 µM, the TGI [19] was > 100 µM and the GI50 [20] was > 100 µM. The TGI [20] was > 100 µM, the GI50 [21] was > 100 µM and the TGI [21] was > 100 µM. The GI50 [22] was > 100 µM, the TGI [22] was > 100 µM and the GI50 [23] was > 100 µM. The TGI [23] was > 100 µM, the GI50 [24] was > 100 µM and the TGI [24] was > 100 µM. The GI50 [25] was > 100 µM, the TGI [25] was > 100 µM and the GI50 [26] was > 100 µM. The TGI [26] was > 100 µM, the GI50 [27] was > 100 µM and the TGI [27] was > 100 µM. The GI50 [28] was > 100 µM, the TGI [28] was > 100 µM and the GI50 [29] was > 100 µM. The TGI [29] was > 100 µM, the GI50 [30] was > 100 µM and the TGI [30] was > 100 µM. For the same molecule, the GI50 [31] was > 100 µM, the TGI [31] was > 100 µM and the GI50 [32] was > 100 µM. The TGI [32] was > 100 µM, the GI50 [33] was > 100 µM and the TGI [33] was > 100 µM. For the same molecule, the GI50 [34] was > 100 µM, the TGI [34] was > 100 µM and the GI50 [35] was 95.5 µM. For the same molecule, the TGI [35] was > 100 µM, the GI50 [36] was > 100 µM and the TGI [36] was > 100 µM. For the same molecule, the GI50 [37] was > 100 µM, the TGI [37] was > 100 µM and the GI50 [38] was > 100 µM. The TGI [38] was > 100 µM, the GI50 [39] was > 100 µM and the TGI [39] was > 100 µM. The GI50 [40] was > 100 µM, the TGI [40] was > 100 µM and the GI50 [41] was > 100 µM. The TGI [41] was > 100 µM, the GI50 [42] was > 100 µM and the TGI [42] was > 100 µM. The GI50 [43] was > 100 µM, the TGI [43] was > 100 µM and the GI50 [44] was > 100 µM. The TGI [44] was > 100 µM, the GI50 [45] was > 100 µM and the TGI [45] was > 100 µM. The GI50 [46] was > 100 µM, the TGI [46] was > 100 µM and the GI50 [47] was > 100 µM. The TGI [47] was > 100 µM, the GI50 [48] was > 100 µM and the TGI [48] was > 100 µM. The GI50 [49] was > 100 µM, the TGI [49] was > 100 µM and the GI50 [50] was > 100 µM. For the same molecule, the TGI [50] was > 100 µM, the GI50 [51] was > 100 µM and the TGI [51] was > 100 µM. The GI50 [52] was > 100 µM, the TGI [52] was > 100 µM and the GI50 [53] was > 100 µM. The TGI [53] was > 100 µM, the GI50 [54] was > 100 µM and the TGI [54] was > 100 µM. The GI50 [55] was > 100 µM, the TGI [55] was > 100 µM and the GI50 [56] was > 100 µM. The TGI [56] was > 100 µM, the GI50 [57] was > 100 µM and the TGI [57] was > 100 µM. The GI50 [58] was > 100 µM and the TGI [58] was > 100 µM.
